# Source: patent US20240398790A1 (ABBVIE INC., priority 2021, published 2024)
# B1: sarilumab: IL-6 inhibitor (antibody, chains of the INN, looked up, V domains shown)
# VH: EVQLVESGGGLVQPGRSLRLSCAASRFTFDDYAMHWVRQAPGKGLEWVSGISWNSGRIGYADSVKGRFTISRDNAENSLFLQMNGLRAEDTALYYCAKGRDSFDIWGQGTMVTVSS
# VL: DIQMTQSPSSVSASVGDRVTITCRASQGISSWLAWYQQKPGKAPKLLIYGASSLESGVPSRFSGSGSGTDFTLTISSLQPEDFASYYCQQANSFPYTFGQGTKLEIK
# Legend:
# [1] = tested on: AS; conditions: literature; cited from earlier work
# [2] = tested on: adult subjects with active ankylosing spondylitis (AS) who had an inadequate response to biologic disease-modifying anti-rheumatic drug therapy (bDMARD-IR); experiment: SELECT AXIS 2 Study 1, Phase 3 placebo-controlled, efficacy at Week 14; assay type: in vivo, human
# [3] = tested on: adult subjects with active ankylosing spondylitis (AS) who had an inadequate response to biologic disease-modifying anti-rheumatic drug therapy (bDMARD-IR); conditions: human, in vivo
# [4] = tested on: bDMARD-naïve patients with AS who had an inadequate response to non-steroidal anti-inflammatory drugs (NSAIDs); conditions: cited from earlier work
# [5] = tested on: adult subjects with active ankylosing spondylitis (AS) who had an inadequate response to biologic disease-modifying anti-rheumatic drug therapy (bDMARD-IR); experiment: SELECT AXIS 2 Study 1, safety up to Week 14
# [6] = AESI up to Week 14, N = 211, listed as Upadacitinib
# [7] = AESI up to Week 14, N = 211, listed as upadacitinib freebase
# [8] = CTCAE V4, Double-Blind Period (Week 14)
# [9] = up to Week 14, N = 211, listed as RINVOQ
molecule,measurement,setting,value
ustekinumab: IL-12/23 inhibitor,efficacy achieved in AS,[1],low efficacy
"CC[C@@H]1CN(C(=O)NCC(F)(F)F)C[C@@H]1c1cnc2cnc3[nH]ccc3n12 [upadacitinib, (3S,4R)-3-ethyl-4-(3H-imidazo[1,2-a]pyrrolo[2,3-e]pyrazin-8-yl)-N-(2,2,2-trifluoroethyl)pyrrolidine-1-carboxamide]","AS QoL, UPA-PBO",[2],−3.07
same,"ASDAS(CRP) Low Disease Activity, UPA-PBO",[2],34.0
same,"ASDAS(CRP), UPA-PBO",[2],−1.02
same,"BASFI (Function), UPA-PBO",[2],−1.17
same,"BASMI (Mobility), UPA-PBO",[2],−0.32
same,MASES (Enthesitis),[2],−2.6
same,"MASES (Enthesitis), UPA-PBO",[2],−1.5
same,"MRI Spine SPARCC, UPA-PBO",[2],−3.90
same,"Nocturnal Back Pain, UPA-PBO",[2],−1.7
same,"Total Back Pain, UPA-PBO",[2],−1.53
same,AS QoL,[2]; 15 mg,−5.10
same,ASDAS(CRP),[2]; 15 mg,−1.52
same,BASFI (Function),[2]; 15 mg,−2.26
same,BASMI (Mobility),[2]; 15 mg,−0.48
same,MRI Spine SPARCC,[2]; 15 mg,−3.95
same,Nocturnal Back Pain,[2]; 15 mg,−3.2
same,Total Back Pain,[2]; 15 mg,−3.00
same,onset of effect in ASAS40,[2]; 15 mg,4 Week
same,ASDAS(CRP) Low Disease Activity,"[2]; 15 mg QD, Week 14, NRI-MI",44.1%
same,Opportunistic infection excluding tuberculosis and herpes zoster,[3],0 (0.0) n (%)
same,"COVID-19 related AE, %",[3]; 14 weeks,(5.7) %
same,ASAS40 response at Week 14 (primary endpoint) versus placebo,"[4]; SELECT-AXIS 1, Week 14",significantly greater achievement
same,"efficacy once achieved at Week 14, over time","[4]; SELECT-AXIS 1, up to and including Week 64",sustained or improved over time
same,"Adverse event (AE), %","[5]; 15 mg QD, up to Week 14, N = 211",(40.8) %
same,"Serious infections, proportion of patients","[5]; 15 mg, through week 14",2.4%
same,"herpes zoster, proportion of patients","[5]; 15 mg, through week 14",0.9%
same,Active tuberculosis,"[5]; AESI up to Week 14, N = 211",0 (0.0) n (%)
same,Anemia,"[5]; AESI up to Week 14, N = 211",3 (1.4) n (%)
same,Hepatic disorder,"[5]; AESI up to Week 14, N = 211",6 (2.8) n (%)
same,Herpes zoster,"[5]; AESI up to Week 14, N = 211",2 (0.9) n (%)
same,Infection,"[5]; AESI up to Week 14, N = 211",31 (14.7) n (%)
same,Lymphoma,"[5]; AESI up to Week 14, N = 211",0 (0.0) n (%)
same,Lymphopenia,"[5]; AESI up to Week 14, N = 211",1 (0.5) n (%)
same,Malignancy,"[5]; AESI up to Week 14, N = 211",No malignancy
same,Malignancy other than NMSC,"[5]; AESI up to Week 14, N = 211",0 (0.0) n (%)
same,Neutropenia,"[5]; AESI up to Week 14, N = 211",6 (2.8) n (%)
same,Non-melanoma skin cancer (NMSC),"[5]; AESI up to Week 14, N = 211",0 (0.0) n (%)
same,Renal dysfunction,"[5]; AESI up to Week 14, N = 211",0 (0.0) n (%)
same,Serious infection,"[5]; AESI up to Week 14, N = 211",5 (2.4) n (%)
same,Adjudicated MACE,[5]; [6],0 (0.0) n (%)
same,Adjudicated gastrointestinal perforation,[5]; [6],0 (0.0) n (%)
same,Adjudicated venous thromboembolic events,[5]; [6],0 (0.0) n (%)
same,Malignancy,[5]; [6],0 (0.0) n (%)
same,Adjudicated MACE,[5]; [7],no events
same,Adjudicated gastrointestinal perforation,[5]; [7],no events
same,Adjudicated venous thromboembolic events,[5]; [7],no events
same,Malignancy,[5]; [7],no events
same,ALT (U/L) Grade 4 (>20.0 xULN),[5]; [8],0/211
same,AST (U/L) Grade 4 (>20.0 xULN),[5]; [8],0/211
same,Creatinine (umol/L) Grade 3 (>3.0-6.0 xULN or >3.0 xBaseline),[5]; [8],0/211
same,Creatinine (umol/L) Grade 4 (>6.0 xULN),[5]; [8],0/211
same,Hemoglobin (g/L) Grade 3 (<80),[5]; [8],0/211
same,Lymphocytes (10^9/L) Grade 4 (<0.2),[5]; [8],0/211
same,Neutrophils (10^9/L) Grade 4 (<0.5),[5]; [8],0/211
same,safety profile,[5]; Phase 3 AS bDMARD-IR study,no new risks were identified
same,"AE with reasonable possibility of being related to study treatment, %","[5]; as assessed by investigator, up to Week 14, N = 211",(17.1) %
same,"hepatic disorders reported, nature",[5]; up to Week 14,mild or moderate transaminase elevations
same,"AE leading to death, %","[5]; up to Week 14, N = 211",(0.0) %
same,"AE leading to withdrawal of study treatment, %","[5]; up to Week 14, N = 211",(0.0) %
same,"All deaths, %","[5]; up to Week 14, N = 211",(0.0) %
same,"Serious AE, %","[5]; up to Week 14, N = 211",(2.8) %
same,"Severe AE, %","[5]; up to Week 14, N = 211",(3.3) %
same,"AE leading to withdrawal of study treatment, %",[5]; [9],0%
same,"Serious AE, %",[5]; [9],2.8%
tocilizumab: IL-6 inhibitor,efficacy achieved in AS,[1],low efficacy
B1,efficacy achieved in AS,[1],low efficacy
